# Measurements: patent US20250134849A1, “PHARMACEUTICAL COMPOSITION FOR PREVENTING OR TREATING OCULAR DISEASE COMPRISING ENAVOGLIFLOZIN” (DAEWOONG THERAPEUTICS INC., priority 2023, published 2025)
# Tested on: Macular Degeneration Animal Model
# Experiment: Laser-induced macular degeneration animal model, fundus fluorescein angiography
# Format: in vivo, Chinchilla rabbits
# Conditions: intravitreal injection 2000 μg, n=5
# Experimental: Chinchilla rabbits (n=24, male) were raised at a temperature of 23±3° C., relative humidity of 55±15%, ventilation frequency of 10 to 20 times/hr, lighting time of 12 hours, and illuminance of 150 to 300 Lux. The environmental conditions such as temperature/humidity of the animal room, ventilation frequency and illuminance were measured regularly during the raising period. During the acclimation, administration, and observation periods, the rabbits were raised in a stainless-steel breeding box (W500×L800×H500 mm) at 1 animal per breeding box. The breeding boxes were cleaned every day and water bottles were exchanged every day. […]
# On the 7th and 14th days after the start of administration in each group, a mydriatic agent (Mydriacyl® Eye Drops 1%) was instilled into the right eye of the rabbits, followed by anesthetizing. […] The efficacies were evaluated through retinal fundus fluorescein angiography. It was confirmed that the fluorescence intensity levels on days 7 and 14 in all macular degeneration-induced groups were higher than those in the normal control groups, G5 and G6 (p<0.001 or p<0.05).
# The average fluorescence intensities of the vehicle-administered groups (G7 and G8) were set to 100% and the relative levels (%) of the fluorescence intensities measured in each animal were analyzed. […]
substance,measurement,setting,value
Aflibercept [Comparative Example 2],"Fluorescence intensity at Day 7 (%), Mean","day 7, relative to vehicle group G7 = 100%",93.345%
same,"Fluorescence intensity at Day 14 (%), Mean","day 14, relative to vehicle group G8 = 100%",69.403%
